# Assay results as given in patent US5622839A (ZymoGenetics, Inc., priority 1995, dated 1997).
# Experiments:
# [1] = target: T1, human calcitonin receptor (Homo sapiens, UniProt P30988); test: [Ca2+]i response of BHK cells expressing cloned calcitonin receptor to calcitonin and extracellular calcium (fura-2); format: cell-based; conditions: about 700,000 calcitonin receptors/cell
# T1 construct: Hollex encoded a protein of 474 amino acids; expressed in transfected cells; host or cells: BHK 570 / BHK/KZ10-20-48 (baby hamster kidney) stably transfected with pHollex
# T1 sequence (P30988 25-474): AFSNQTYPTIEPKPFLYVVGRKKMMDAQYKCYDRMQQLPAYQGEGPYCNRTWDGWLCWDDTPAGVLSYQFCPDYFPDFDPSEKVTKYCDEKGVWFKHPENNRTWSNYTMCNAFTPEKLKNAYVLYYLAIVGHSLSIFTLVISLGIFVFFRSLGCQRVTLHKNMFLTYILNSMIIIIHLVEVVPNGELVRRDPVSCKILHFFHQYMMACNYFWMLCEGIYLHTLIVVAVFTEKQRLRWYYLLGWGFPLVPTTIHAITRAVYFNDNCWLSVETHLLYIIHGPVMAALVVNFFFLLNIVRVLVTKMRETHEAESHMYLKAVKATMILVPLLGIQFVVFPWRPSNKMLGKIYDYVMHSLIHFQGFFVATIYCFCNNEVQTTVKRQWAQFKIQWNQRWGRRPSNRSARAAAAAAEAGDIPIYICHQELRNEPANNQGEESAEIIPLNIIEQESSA
# Procedure: BHK cells expressing the cloned calcitonin receptor were assayed to determine their response to extracellular calcium. Cells were washed three times with a buffer (140 mM NaCl, 5 mM KCl, 0.5 mM MgCl2, 0.5 mM CaCl2 (concentration varied in some experiments), 10 mM glucose, 10 mM HEPES, pH 7.4) made using high purity salts (Aldrich, Milwaukee, Wis.) and sterile water (Baxter, McGaw Park, Ill.). Cells were loaded with fura-2 AM (Molecular Probes Inc.) (10 μg/ml) for 30 minutes essentially as described above, then washed an additional three times. Slides were mounted at room temperature on an inverted microscope (EPIPHOT, Nikon), and a field of cells (typically 20-30 cells) was located using a 40× Nikon fluor objective. The ratio of fura-2 emission at excitation wavelengths of 340 and 380 nm was recorded every 5 seconds. Individual cells were analyzed on a computer workstation (Sun Microsystems) using a software system designed for ratio imaging (Inovision). The concentration of calcium chloride in buffers was determined by comparison to calcium standards on a calcium analyzer (Nova Biomedical Corp. Waltham, Mass.). All experiments were reproduced three to eight times. Fura-2 ratio 340 nm to 380 nm values (R) were converted to [Ca^2+ ]i concentrations after calibration of the instrument using the formula: calcium (nm)=2240[R-0.3)/(20-R)]. Basal [Ca^2+ ]i concentrations were typically 80-150 nm. The peak fura-2 ratios 340/380 of individual cells exposed to 20 nm salmon calcitonin followed by 25 mM calcium chloride were averaged for some experiments and converted to [Ca^2+ ]i concentrations. Standard error was calculated at a 99% level using a Z score of 2.58 (n>30).
# [2] = target: T1, human calcitonin receptor; test: cAMP response by radioimmunoassay (scintillation proximity assay) in Hollex1 and Hollex2; format: cell-based; conditions: 10 min; for EC50: read-out: ED50 (cAMP)
# Procedure: The cAMP response of the transfectant clones Hollex1 and Hollex2 to calcitonin and forskolin was also assayed by radioimmunoassay using the cAMP [^125 I] scintillation proximity assay system (Amersham) using the manufacturer's directions. Briefly, either 1×10^5 cells per well or 3×10^5 cells per well were plated into the wells of a 24-well culture dish and grown for 2 days (1×10^5 cells per well) or overnight (3×10^5 cells per well) in selection medium. Calcitonin and forskolin were prepared in DMEM, 10% fetal calf serum, 10 μM IBMX at 0.0001-1000 nM and 25 μM, respectively.
# The growth medium was replaced with 200 μl/well of agonist (either calcitonin or forskolin). The cells were incubated with the agonists for 10 minutes at 37° C. in 5% CO2. Following incubation, 800 μl of boiling water was added to each well. After 15 minutes the supernatants were collected and diluted 1:5 or 1:40 in acetate buffer (cAMP [^125 I] Scintillation Proximity Assay System (Amersham)). Samples were acetylated using triethylamine and acetic anhydride according to the protocol provided by the manufacturer.
# A 100 μl aliquot of each acetylated sample was combined with 75 μl of ^125 I-cAMP, 75 μl anti-succinyl cAMP antisera and 75 μl of donkey anti-rabbit IgG coupled SPA beads (all assay solutions provided in the cAMP [^125 I] Scintillation Proximity Assay System (Amersham)) in a well of an Dynatech MICROLITE 2 plate. The trays were sealed and incubated overnight with continuous shaking on a rotary platform shaker at 200 rpm. The samples were counted in a Packard Top Count Microplate Scintillation Counter (Packard Instrument Co., Meriden, Conn.). A standard curve of 2-128 fmol acetylated cAMP was also run. Total ^125 I-cAMP bound and nonspecific binding were also determined.
# T47D cells = target: T2, T47D cells (Homo sapiens, UniProt P30988); test: Calcitonin competition binding assay with T47D cells (positive control); conditions: T47D (pos. control)
# T2 construct: T47D cells were used as a positive control; endogenous in cells; host or cells: T47D human breast carcinoma cells
# T2 sequence (P30988 25-474): T1 sequence (P30988 25-474)
# Procedure: Clones Hollex1 and Hollex2 were tested for receptor-mediated ability to bind calcitonin using a competition assay. T47D cells were used as a positive control and BHK cells transfected with Zem1698 were used as a negative control.
# The cells were rinsed in binding medium (500 ml RPMI 1640 (Sigma, St. Louis, Mo.), 1 mg/ml bacitracin (Sigma), and 1 mg/ml BSA (Boehringer Mannheim)) to remove the serum. […] The cells were incubated for 1.5 hours at room temperature, and then rinsed 3 times with PBS to remove unincorporated radioactivity. Five hundred microliters of 0.25N NaOH was added to each well to solubilize the cells. The samples were collected from each well and CPMs were counted on a gamma counter.
# [3] = target: T1, human calcitonin receptor; test: Inositol triphosphate assay in BHK 570 cells expressing pHollex; format: cell-based
# Procedure: BHK 570 cells expressing the calcitonin receptor from pHollex or mock-transfected BHK 570 cells were plated into 24-well tissue culture dishes at about 200,000 cells per well. After 24 hours, the cells in each well were labeled by incubation in 0.5 ml of Dulbecco's Modified Eagles Medium (DMEM, JRH Biosciences, Lenexa, Kans.) containing 10% fetal calf serum and 4.0 μCi/ml of myo-(2-^3 H) inositol (specific activity=20 Ci/mmol; Amersham). At the end of a 24 hour incubation, the cells were washed with 1 ml prewarmed DMEM that had been buffered with 20 mM Hepes, pH 7.0 (Sigma Chemical Co.) containing 10 mM LiCl. The wash medium was removed by aspiration and replaced with 900 μl of fresh buffered medium. The cells were incubated for five to fifteen minutes at 37° C. After incubation, appropriate concentration of each agonist or antagonist was added to triplicate wells, and the cells were incubated for 30 minutes at 37° C.
# The reaction was terminated by placing the cells on ice. Following aspiration of the media, the cells were then lysed by the addition of 1 ml of cold DMEM and 1 ml of ice-cold 10% perchloric acid. After ten minutes the cell lysates were transferred to tubes containing 500 μl of 10 mM EDTA, pH 7.0. […] Ten milliliters of OPTIFLUOR (Packard Instrument Co., Menden, Conn.) were added to each sample, and the samples were counted. […]
substance,measurement,setting,value
salmon calcitonin,concentration giving maximal transient [Ca2+]i increases,[1],10-20 nm
same,EC50,[2]; Hollex1,0.07 nM
same,induction of cAMP,"[2]; Hollex1, saturating concentrations (10-100 nM)",12 fold
same,EC50,[2]; Hollex2,0.04 nM
same,induction of cAMP levels,"[2]; Hollex2, saturating concentrations (10-100 nM)",5 fold
same,Kd,T47D cells,0.6 ± 0.5 nM
same,EC50,"[3]; Hollex1, 30 min at 37° C., read-out: ED50 (inositol phosphate)",9.5 nM
same,inositol phosphate response,[3]; Hollex2,no response
